Like-named read-outs stand apart in the source and are kept apart here.
Tests used:
[1] = biological target: T1, human orexin 2 receptor (Homo sapiens, UniProt O43614); test: Assay B: In vitro testing of OX2R potency: OX2R IP1 (HTRF, CHO-K1/hOX2 cells, Orexin A as agonist); format: cell-based; settings: Orexin A 0.5 nM
T1 construct: stably expressing the full-length human orexin 2 receptor; expressed in transfected cells; host or cells: CHO-K1 (CHO-K1/hOX2), co-expressing aequorin
T1 sequence (O43614 1-444): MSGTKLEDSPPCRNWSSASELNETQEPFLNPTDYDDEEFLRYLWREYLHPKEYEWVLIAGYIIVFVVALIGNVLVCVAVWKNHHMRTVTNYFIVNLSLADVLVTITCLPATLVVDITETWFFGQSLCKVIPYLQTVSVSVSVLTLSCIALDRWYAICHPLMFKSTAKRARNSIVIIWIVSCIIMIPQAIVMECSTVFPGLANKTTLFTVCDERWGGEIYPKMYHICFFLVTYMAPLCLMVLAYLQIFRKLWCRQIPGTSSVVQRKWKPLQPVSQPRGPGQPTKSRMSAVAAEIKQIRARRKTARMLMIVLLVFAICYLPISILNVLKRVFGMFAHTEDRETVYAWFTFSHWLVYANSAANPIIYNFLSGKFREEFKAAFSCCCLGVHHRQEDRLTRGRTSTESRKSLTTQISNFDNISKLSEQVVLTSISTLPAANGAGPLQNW
Text: Activation of the orexin receptors expressed in cell lines results in an increase in intracellular IP3 concentration. IP1, a downstream metabolite of IP3, accumulates in cells following receptor activation and is stable in the presence of LiCl. Using Homogeneous Time-Resolved Fluorescence technology with Lumi4-Tb cryptate (commercially available from Cisbio Bioassay.) and a suitable fluorescence plate reader. […] Chem. Genomics 2009, 3, 22-32. This technique is used to characterize pharmacological modification of the orexin receptors.
B. In Vitro Testing of OX2R Potency: OX2R IP1
IP1 measurements are performed in CHO-K1 cells stably expressing the full-length human orexin 2 receptor and the aequorin photoprotein. Cells are cultivated in Ham's nutrient mixture F12 medium with 10% fetal calf serum, in a 37° C., 95% humidity and 5% CO2 incubator. The CHO-K1/hOX2 cell mass is expanded to larger cell numbers. The cells are obtained as frozen cells in cryo-vials and stored until use at −150° C. The viability of the cells after thawing is >90%. In preparation for the assay, 24 hours before the assay, the cells are thawed at 37° C. and immediately diluted with cell culture medium. After centrifugation, the cell pellet is resuspended in medium and then distributed into the assay plates with a density of 5000 cells/25 μL per well. The plates are incubated for one hour at room temperature to reduce edge effects before they are incubated for 24 hours at 37° C./5% CO2. Compounds are prepared by a 8-point serial dilution in DMSO and a final dilution step into assay buffer (HBSS with 20 mM HEPES, 0.1% BSA and 50 mM LiCl, pH 7.4) to ensure a final DMSO concentration of 1% in the assay.
On the day of the assay, cells in the plate are washed twice with 60 μL assay buffer (20 μL buffer remained in the wells after washing), followed by adding 5 μL per well of compounds diluted in assay buffer. After 15 minutes of incubation at room temperature 5 μL per well of Orexin A peptide (final concentration: 0.5 nM) dissolved in assay buffer is added to the assay plate. The assay plate is incubated for 60 minutes at 37° C. Then 5 μL per well of Anti-IP1-Cryptate Tb solution and 5 μL per well of IP1-d2 dilution are added to all well of the plate and the plate is incubated for a further 60 minutes light protected at room temperature. The emission at 615 nm and 665 nm (Excitation wavelength: 320 nm) are measured using an EnVision reader (PerkinElmer). The ratio between the emission at 665 nm and 615 is calculated by the reader.
8-point four parametric non-linear curve fitting and determination of IC50 values and Hill slopes is performed using a regular analysis software e.g. AssayExplorer (Accelrys). In order to establish an agonist concentration independent parameter, Kb values are calculated using the following equation: IC50/((2+(A/EC50)n)^1/n−1) (with A=concentration agonist, EC50=EC50 agonist, n=Hill slope agonist) (see P. Leff, I. G. Dougall, Trends Pharmacol. Sci. 1993, 14(4), 110-112).
Kb values from Assay A (OX1R) and Assay B (OX2R) can then provide a selectivity ratio which is independent of the agonist (Orexin A) concentration.

[2] = Assay C: Metabolic stability in human liver microsomes (Human MST); format: in vitro ADME; settings: pooled human liver microsomes, pH 7.6; human liver microsomes 1 mg/mL, compound 1 μM, 37° C., NADPH; read-out: Human MST t1/2
Protocol: C. Assessment of Metabolic Stability in Human Liver Microsomes (Human MST)
The metabolic stability of the compounds according to the invention may be investigated as follows:
The metabolic degradation of the test compound is assayed at 37° C. with pooled human liver microsomes. The final incubation volume of 100 μL per time point contains TRIS buffer pH 7.6 at room temperature (0.1 M), MgCl2 (5 mM), microsomal protein (1 mg/mL) and the test compound at a final concentration of 1 μM. Following a short pre-incubation period at 37° C., the reactions are initiated by addition of beta-nicotinamide adenine dinucleotide phosphate, reduced form (NADPH, 1 mM), and terminated by transferring an aliquot into solvent after different time points. After centrifugation (10000 g, 5 min), an aliquot of the supernatant is assayed by LC-MS/MS for the amount of parent compound. The half-life (t1/2) is determined by the slope of the semi-logarithmic plot of the concentration-time profile.

[3] = biological target: T2, human Orexin 1 receptor (Homo sapiens, UniProt O43613); test: Assay A: In vitro testing of OX1R potency: OX1R IP1 (HTRF, CHO-K1/hOX1 cells, Orexin A as agonist); format: cell-based; settings: for Kb: read-out: OX1R Kb (Orexin A concentration used)
T2 construct: stably expressing the full-length human Orexin 1 receptor; expressed in transfected cells; host or cells: CHO-K1 (CHO-K1/hOX1), co-expressing aequorin
T2 sequence (O43613 1-425): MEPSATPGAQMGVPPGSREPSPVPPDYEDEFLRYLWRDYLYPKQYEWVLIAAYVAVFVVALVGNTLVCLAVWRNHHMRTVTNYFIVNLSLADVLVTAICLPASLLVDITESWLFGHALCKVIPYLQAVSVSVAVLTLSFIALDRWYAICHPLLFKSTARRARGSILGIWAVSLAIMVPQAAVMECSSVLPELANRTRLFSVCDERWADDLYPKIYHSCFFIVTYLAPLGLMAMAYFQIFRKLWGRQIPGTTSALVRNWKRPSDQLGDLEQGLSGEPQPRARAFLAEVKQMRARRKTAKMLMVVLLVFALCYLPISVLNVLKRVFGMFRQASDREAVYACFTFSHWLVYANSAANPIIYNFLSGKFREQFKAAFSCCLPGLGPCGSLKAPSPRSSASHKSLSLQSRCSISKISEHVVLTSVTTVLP

| SMILES | Kb [1] [nM] | half-life at 1 μM [2] [min] | OX2R Kb/OX1R Kb ([3]; OX1R Kb at 0.5 nM Orexin A) | OX2R Kb/OX1R Kb ([3]; OX1R Kb at 50 nM Orexin A) | Kb ([3]; Orexin A 0.5 nM) [nM] | Kb ([3]; Orexin A 50 nM) [nM] |
| --- | --- | --- | --- | --- | --- | --- |
| CCN(C(=O)c1ccccc1-c1cnc(OC)nc1)[C@@H](C)COc1ccc(C(F)(F)F)cn1 [Example 79] | 92 | 12 | 66 | 58 | 1.4 | 1.6 |
| CCN(C(=O)c1ccccc1-n1nccn1)[C@@H](C)COc1ncc(C(F)(F)F)cc1F [Example 47] | 87 | 21 | 130 | 272 | 0.67 | 0.32 |
| CCN(C(=O)c1ccccc1-c1noc(C)n1)[C@@H](C)COc1ccc(C(F)(F)F)cn1 [Example 123] | 34 | 23 | – | 200 | – | 0.17 |
| CCN(C(=O)c1ccc(F)cc1-c1ncccn1)[C@@H](C)COc1ccc(Br)cn1 [Example 129] | 42 | 30 | – | 247 | – | 0.17 |
| CCN(C(=O)c1cc(F)ccc1-n1nccn1)[C@@H](C)COc1ccc(Cl)cn1 [Example 29] | 71 | 55 | 71 | 81 | 1 | 0.88 |
| CCN(C(=O)c1cccc(F)c1-n1nccn1)[C@@H](C)COc1ccc(C(F)(F)F)cn1 [Example 109] | 36 | 75 | – | 327 | – | 0.11 |
| CCN(C(=O)c1ccccc1-c1ccn(C)c(=O)c1)[C@@H](C)COc1ccc(C(F)(F)F)cn1 [Example 81] | 1670 | 39 | 575 | – | 2.9 | – |
| CCN(C(=O)c1cc(OC)ccc1-n1nccn1)[C@@H](C)COc1ccc(Cl)cn1 [Example 33] | 33 | 20 | – | 236 | – | 0.14 |
| CCN(C(=O)c1cc(F)cc(F)c1-n1nccn1)[C@@H](C)COc1ccc(OC(F)(F)F)cn1 [Example 126] | 41 | 62 | 71 | 66 | 0.58 | 0.62 |
| CCN(C(=O)c1c(-n2nccn2)ccc(C)c1F)[C@@H](C)COc1ncc(C(F)(F)F)cc1F [Example 127] | 49 | 15 | – | 377 | – | 0.13 |
| CCN(C(=O)c1ccccc1-c1cncc(C#N)c1)[C@@H](C)COc1ccc(C(F)(F)F)cn1 [Example 76] | 124 | 11 | 113 | 125 | 1.1 | 0.99 |
| CCN(C(=O)c1ccccc1-c1cnn(C)c1)[C@@H](C)COc1ccc(C(F)(F)F)cn1 [Example 93] | 74 | 18 | – | 99 | – | 0.75 |
| CCN(C(=O)c1cc(C#N)ccc1-n1nccn1)[C@@H](C)COc1ccc(C(F)(F)F)cn1 [Example 95] | 37 | > 130 | 71 | 74 | 0.52 | 0.5 |
| CCN(C(=O)c1cc(F)ccc1-n1cccn1)[C@@H](C)COc1ncc(C(F)(F)F)cc1F [Example 124] | 1060 | 10 | 278 | – | 3.8 | – |
| CCN(C(=O)c1cccc(F)c1-n1nccn1)[C@@H](C)COc1ncc(Br)cc1F [Example 112] | 96 | 67 | 168 | 192 | 0.57 | 0.5 |
| CCN(C(=O)c1ccc(C)cc1-c1ncccn1)[C@@H](C)COc1ccc(C(F)(F)F)cn1 [Example 101] | 30 | 13 | 79 | – | 0.38 | – |
| CCN(C(=O)c1cccc(F)c1-n1nccn1)[C@@H](C)COc1ccc(Cl)cn1 [Example 114] | 54 | 110 | 92 | 98 | 0.59 | 0.55 |
| CCN(C(=O)c1cc(F)c(F)cc1-n1nccn1)[C@@H](C)COc1ccc(C(F)(F)F)cn1 [Example 4] | 138 | 61 | 276 | 187 | 0.5 | 0.74 |
| CCN(C(=O)c1ccccc1-c1ncccn1)[C@@H](C)COc1ccc(C(F)(F)F)cn1 [Example 102] | 27 | 36 | – | 1080 | – | 0.025 |
| CCN(C(=O)c1cc(OC)ccc1-n1nccn1)[C@@H](C)COc1ccc(C(F)(F)F)cn1 [Example 15] | 15 | 16 | – | 250 | – | 0.06 |
| CCN(C(=O)c1ccc(F)cc1-n1nccn1)[C@@H](C)COc1ncc(C(F)(F)F)cc1F [Example 48] | 205 | 31 | 156 | 220 | 1.31 | 0.93 |
| CCN(C(=O)c1cccc(Cl)c1-n1nccn1)[C@@H](C)COc1ccc(C(F)(F)F)cn1 [Example 90] | 13 | 44 | – | 520 | – | 0.025 |
| CCN(C(=O)c1cc(F)cc(F)c1-n1nccn1)[C@@H](C)COc1ncc(C(F)(F)F)cc1F [Example 54] | 274 | 87 | 277 | 415 | 0.99 | 0.66 |

— patent US10787432B2, “N-[(pyridyloxy)propanyl]benzamides” (Boehringer Ingelheim International GmbH, priority 2016, dated 2020)
